According to US8188121B2, “Substituted pyridines as antiparasitic AZA teraryl compounds” (The University of North Carolina at Chapel Hill, priority 2005, dated 2012):
pIC50: −log10 of the molar value. Structures can show the parent of a compound that is named as a salt. Where two headings read alike, the source gives them in different places.

Key:
[1] = system: Leishmania donovani (L. d.); experiment: In vitro antiprotozoal activity against L. d.; type: cell-based; conditions: read-out: L. d. IC50
Protocol: (§1) In vitro antiprotozoal activities were measured following established protocols. See Ismail, M. A., et al., J. Med. Chem., 46, 4761-4769 (2003); Stephens, C. E., et al., Bioorg. Med. Chem. Lett., 13, 2065-2069 (2003) (in vitro assay against Leishmania donovani).
(§2) Testing methods are as described above in Example 17.

L-6 rat mycoblast cells = experiment: cells
Protocol: as §1, §2

[2] = system: STIB 900 strain of Trypanosoma brucei rhodesiense; experiment: T. b. r. STIB 900 mouse model; type: in vivo; conditions: for responders at 20 mg/kg: Trypanosoma brucei, 1440 h, mice surviving parasite free for 60 days, groups of four, read-out: Cures (converted)
Protocol: The activities of compounds 20, 18, 21, 48, 23c, 24c, 5, 4, and 10 against the STIB 900 strain of Trypanosoma brucei rhodesiense (T. b. r.) in a mouse model are shown in Table 3. […] Groups of four mice were infected intraperitoneally with 2×10^5 bloodstream forms of T. b. r. STIB 900 which originates from a patient in Tanzania. On days 3, 4, 5, and 6 post-infection the experimental groups were treated with the indicated compound, either by the intraperitoneal route, or for prodrugs, by the oral route. Usually the highest tolerated dose was used. The highest tolerated dose was determined in a pretoxicological experiment.
Parasitemia of the mice was checked daily up to day 14 post-infection and thereafter 2 times per week up to day 60. One group of mice was not treated and acted as control. Untreated control animals expire between day 7 and 8 post-infection. For relapsing mice, the day of death was recorded and the survival time determined. For the data shown in Table 3, cures reflect the number of mice that survive and are parasite free for 60 days. Survival reflects the average days of survival.
as §2

[3] = system: Trypanosoma brucei rhodesiense (T. b. r.); experiment: In vitro antiprotozoal activity against T. b. r.; type: cell-based
Protocol: as §1, §2

[4] = system: Plasmodium falciparum (P. f.); experiment: In vitro antiprotozoal activity against P. f.; type: cell-based
Protocol: as §1, §2

DNA minor groove = experiment: ΔTm of linear triaryl dications (DNA minor groove binding)
[5] = Rattus norvegicus, L6, read-out: CT IC50
[6] = 20 mg/kg ip, days 3-6 post-infection, average days of survival
[7] = 20 mg/kg ip, days 3-6 post-infection
[8] = Trypanosoma brucei, RHODESIENSE, Table 1, k/K = thousand, read-out: T. b. r. IC50
[9] = Plasmodium falciparum, Table 1, k/K = thousand
[10] = Table 1, k/K = thousand, read-out: T. b. r. IC50
[11] = Table 2, K = thousand, read-out: T. b. r. IC50
[12] = Rattus norvegicus, L6, read-out: CT IC50, Table 4, L-6 cells

In the case of CC(=O)O.N=C(N)c1ccc(-c2ccc(-c3ccc(C(=N)N)o3)cc2)o1, the melting point was 228 to 230 °C.

For CONC(=N)c1ccc(-c2cnc(-c3ccc(C(=N)NOC)cc3)nc2)cc1 (as salt: hydrochloride) [Compound 29, 2,5-Bis-[4′-(N-methoxyamidino)phenyl]-pyrimidine], the melting point was 217 to 218 °C.

In the case of N=C(NO)c1ccc(-c2ccc(-c3ccc(C(=N)NO)o3)cn2)cc1 [Compound 9, N-Hydroxy-5-{6-[4-(N-hydroxyamidino)-phenyl]-pyridin-3-yl}-furan-2-carboxamidine], the melting point was 194 to 195 °C.

In the case of CC(=O)O.N=C(N)c1ccc(-c2ccc(-c3ccc(C(=N)N)o3)cn2)cc1 [Compound 10, 5-[6-(4-Amidinophenyl)-pyridin-3-yl]-furan-2-carboxamidine acetate salt], the pIC50 ([1]; Leishmania donovani, Table 1) was 4.69, the pIC50 (L-6 rat mycoblast cells; [5]) was 4.51 and the Survival [2, 6] was >53.5 days. For the same compound, the responders at 20 mg/kg [2, 7] was 75%, the pIC50 [3, 8] was 8.70 and the pIC50 [4, 9] was 8.28.

With N=C(NO)c1ccc(-c2ccc(-c3ccc(C(=N)NO)o3)cc2)o1 [Compound 13, N-Hydroxy-5-{4-[5-(N-hydroxyamidino)-furan-2-yl]-phenyl}-furan-2-carboxamidine] the melting point was > 300 °C.

Work on CC(=O)O.N=C(N)c1ccc(-c2ccc(-c3ccc(C(=N)N)cc3)cc2)cc1 [Compound 20, [1,1′;4′,1″]Terphenyl-4,4″-bis-carboxamidine acetate salt] yielded a ΔTm (DNA minor groove; Table 1) of 19.1 °C, a pIC50 (L-6 rat mycoblast cells; [5]) of 4.66 and a Survival [2, 6] of 52.5 days. It also gave a responders at 20 mg/kg [2, 7] of 0%, a pIC50 [3, 8] of 8.30 and a pIC50 [4, 9] of 9.00.

Cl.N=C(N)c1ccc(-c2ccc(-c3ccc(C(=N)N)cc3)c(F)c2)cc1 [Compound 23a, 2′-Fluoro-[1,1′;4′,1″]terphenyl-4,4″-bis-amidine hydrochloride salt] gave a pIC50 ([1]; Leishmania donovani, Table 1) of 6.47, a ΔTm (DNA minor groove; Table 1) of 15.1 °C and a pIC50 (L-6 rat mycoblast cells; [5]) of 5.19. For the same compound, the pIC50 [3, 8] was 8.70 and the pIC50 [4, 9] was 9.00.

For Cl.N=C(N)c1ccc(-c2ccc(-c3ccc(C(=N)N)cc3)c(C(F)(F)F)c2)cc1 [Compound 23b, 2′-Trifluoromethyl-[1,1′;4′,1″]terphenyl-4,4″-bis-amidine hydrochloride salt], the pIC50 ([1]; Leishmania donovani, Table 1) was 5.52, the ΔTm (DNA minor groove; Table 1) was 10.1 °C and the pIC50 (L-6 rat mycoblast cells; [5]) was 5.05. For the same compound, the pIC50 [3, 8] was 7.32, the melting point was > 300 °C and the pIC50 [4, 9] was 7.82.

Work on N=C(NO)c1ccc(-c2cnc(-c3ccc(C(=N)NO)cc3)nc2)cc1 [Compound 28, 2,5-Bis-[4′-(N-hydroxyamidino)phenyl]-pyrimidine] yielded a melting point of 290 to 292 °C.

In the case of N=C(N)c1ccc(-c2ccc(-c3ccc(C(=N)N)cn3)cc2)nc1 [Compound 31, 1,4-Bis-(5′-amidinopyridin-2′-yl)-phenylene], the pIC50 ([1]; Table 1) was < 4.00, the pIC50 [3, 10] was 7.33 and the pIC50 ([4]; Table 1, k/K = thousand) was 8.00.

N=C(N)c1ccc(-c2ccc(-c3ccc(C(=N)N)cc3)c3ccccc23)cc1 [Compound 38a, Phenyl[1,1]napthyl[4′,1″]phenyl-4,4″-bis-amidine] gave a pIC50 ([1]; Table 2) of 4.89, a pIC50 (L-6 rat mycoblast cells) of 5.14 and a pIC50 [3, 11] of 6.76. For the same compound, the pIC50 ([4]; Table 2, K = thousand) was 7.68.

N=C(N)c1ccc(-c2ccc3cc(-c4ccc(C(=N)N)cc4)ccc3c2)cc1 [Compound 38b, Phenyl[1,2′]naphthyl[6′,1″]phenyl-4,4″-bis-amidine] gave a pIC50 ([1]; Table 2) of 6.55, a ΔTm (DNA minor groove; Table 2) of 18.2 °C and a pIC50 (L-6 rat mycoblast cells) of 5.10. The pIC50 [3, 11] was 7.28 and the pIC50 ([4]; Table 2, K = thousand) was 7.72.

In the case of N=C(N)Nc1ccc(-c2ccc(-c3ccc(NC(=N)N)cc3)cc2)cc1 [Compound 48, 4,4″-Bis-guanidino-[1,1′;4′,1″]terphenyl], the pIC50 ([1]; Leishmania donovani, Table 1) was 5.92, the ΔTm (DNA minor groove; Table 1) was 12.2 °C and the pIC50 (L-6 rat mycoblast cells; Rattus norvegicus, L6, read-out: CT IC50, Table 1, L-6 cells) was 4.60. For the same compound, the Survival [2, 6] was >60 days, the responders at 20 mg/kg [2, 7] was 0% and the pIC50 [3, 8] was 7.74. The pIC50 [4, 9] was 7.57.

Compound CC(C)N=C(N)Nc1ccc(-c2ccc(-c3ccc(NC(N)=NC(C)C)cc3)cc2)cc1 [Compound 51b, 4,4″-Bis(N′-isopropyl)-guanidino-[1,1′;4′,1″]terphenyl] has a pIC50 ([1]; Table 1) of 5.14, a pIC50 (L-6 rat mycoblast cells; read-out: CT IC50, Table 1, L-6 cells) of 4.66 and a pIC50 [3, 10] of 6.28. For the same compound, the pIC50 ([4]; Table 1, k/K = thousand) was 7.85.

N=C(N)c1ccc(-c2ccc(-c3ccc(C(=N)N)nc3)cc2)cn1 [Compound 66, 1,4-Bis-(2′-amidinopyridin-5′-yl)-phenylene hydrochloride salt] gave a pIC50 ([1]; Leishmania donovani, Table 1) of 6.14, a pIC50 ([1]; Leishmania donovani, Table 4) of 7.20 and a ΔTm (DNA minor groove; Table 1) of 16.1 °C. For the same compound, the pIC50 (L-6 rat mycoblast cells; [5]) was 4.50, the pIC50 (L-6 rat mycoblast cells; [12]) was 5.92 and the Cures ([2]; 5 mg/kg ip, Table 5) was 0/4. The Survival ([2]; 5 mg/kg ip, Table 5) was > 51.5 days.

N=C(N)c1cnc(-c2ccc(-c3cnc(C(=N)N)cn3)cc2)cn1 [Compound 71, 1,4-Bis-(2′-amidinopyrazin-5′-yl)-phenylene hydrochloride salt] gave a pIC50 ([1]; Leishmania donovani, Table 4) of 5.00, a pIC50 (L-6 rat mycoblast cells; [12]) of 4.33 and a pIC50 ([4]; Plasmodium falciparum, Table 4) of 5.29.

N=C(N)c1ncc(-c2ccc(-c3cnc(C(=N)N)nc3)cc2)cn1 [Compound 73, 1,4-Bis-(2′-amidinopyrimidin-5′yl)-phenylene hydrochloride salt] showed a pIC50 ([1]; Leishmania donovani, Table 4) of 5.76.

N=C(N)c1ccc(-c2cnc(-c3ccc(C(=N)N)cc3)cn2)cc1 [Compound 75, 2,5-Bis-(4′-amidinophenyl)-pyrazine hydrochloride salt] gave a pIC50 ([1]; Leishmania donovani) of 6.25, a pIC50 (L-6 rat mycoblast cells; [12]) of 4.37 and a pIC50 ([3]; Trypanosoma brucei, RHODESIENSE, read-out: T. b. IC50) of 7.74.

With N=C(N)c1ccc(-c2cnc(-c3ccc(C(=N)N)nc3)nc2)cn1 [Compound 77, 2,5-Bis-(2′-amidinopyridin-5′-yl)-pyrimidine hydrochloride salt] the pIC50 ([1]; Leishmania donovani, Table 4) was 5.74.

With N=C(N)c1ccc(-c2ccc(-c3ccc(C(=N)N)nc3)cc2)cc1 [Compound 80, Phenyl[1,1′]phenyl[4′,5″]pyridinyl-4,2″-bis-amidine hydrochloride salt] the pIC50 ([1]; Leishmania donovani, Table 4) was 7.08 and the pIC50 (L-6 rat mycoblast cells; [12]) was 5.55.

N=C(N)c1ccc(-c2ccc(-c3ccc(C(=N)N)cn3)cc2)cc1 [Compound 83, Phenyl[1,1′]phenyl[4′,2″]pyridinyl-4,5″-bis-amidine hydrochloride salt] showed a pIC50 ([1]; Leishmania donovani, Table 4) of 5.86 and a pIC50 (L-6 rat mycoblast cells; [12]) of 4.57.

Work on N=C(N)c1ccc(-c2ccc(-c3cnc(C(=N)N)nc3)cc2)cc1 [Compound 86, Phenyl[1,1′]phenyl[4′,5″]pyrimidinyl-4,2″-bis-amidine hydrochloride salt] yielded a pIC50 ([1]; Leishmania donovani, Table 4) of 6.72.

In the case of N=C(N)c1ccc(-c2ccc(-c3ccc(C(=N)N)nc3)cn2)cc1 [Compound 89, Phenyl[1,2′]pyridinyl[5′,5″]pyridinyl-4,2″-bis-amidine hydrochloride salt], the pIC50 ([1]; Leishmania donovani, Table 4) was 6.29, the pIC50 (L-6 rat mycoblast cells; [12]) was 4.70 and the Cures ([2]; 5 mg/kg ip, Table 5) was 3/4. For the same compound, the Survival ([2]; 5 mg/kg ip, Table 5) was > 60 days, the pIC50 ([3]; Trypanosoma brucei, RHODESIENSE, Table 4, read-out: T. b. IC50) was 8.22 and the pIC50 ([4]; Plasmodium falciparum, Table 4) was 9.00.

With N=C(N)c1ccc(-c2ccc(-c3ccc(C(=N)N)cn3)cn2)cc1 [Compound 94, Phenyl[1,2′]pyridinyl[5′,2″]pyridinyl-4,5″-bis-amidine hydrochloride salt] the pIC50 ([1]; Leishmania donovani, Table 4) was 5.17, the pIC50 (L-6 rat mycoblast cells; [12]) was 4.55 and the Survival ([2]; 5 mg/kg ip, Table 5) was > 60 days. It also gave a pIC50 ([4]; Plasmodium falciparum, Table 4) of 8.52.

N=C(N)c1ccc(-c2ccc(-c3cnc(C(=N)N)cn3)cn2)cc1 [Compound 97, Phenyl[1,2′]pyridinyl[5′,5″]pyrazinyl-4,2″-bis-amidine hydrochloride salt] showed a pIC50 ([1]; Leishmania donovani, Table 4) of 4.81 and a pIC50 (L-6 rat mycoblast cells; [12]) of 4.03.

Work on N=C(N)c1ccc(-c2ccc(-c3cnc(C(=N)N)nc3)cn2)cc1 [Compound 100, Phenyl[1,2′]pyridinyl[5′,5″]pyrimidinyl-4,2″-bis-amidine hydrochloride salt] yielded a pIC50 ([1]; Leishmania donovani, Table 4) of 5.58.
